{
  "source": "the OPERA property sets (Mansouri et al. 2018)",
  "conditions": "for solubility: 25 °C",
  "data": [
    {"compound": "O=Cc1cc(O)cc(Br)c1", "values": [
      {"measurement": "logP", "value": 2.5},
      {"measurement": "solubility", "value": 0.562, "unit": "mM"}
    ]},
    {"compound": "O=Cc1cc(Br)ccc1Br", "values": [
      {"measurement": "logP", "value": 3.35},
      {"measurement": "solubility", "value": 0.158, "unit": "mM"}
    ]},
    {"compound": "O=Cc1ccc(O)cc1", "values": [
      {"measurement": "solubility", "value": 106, "unit": "mM"}
    ]},
    {"compound": "O=Cc1cccc(O)c1", "values": [
      {"measurement": "logP", "value": 1.29}
    ]},
    {"compound": "CCOc1ccc(C=O)cc1OC", "values": [
      {"measurement": "logP", "value": 1.63}
    ]},
    {"compound": "CC(C)OC(=O)COc1ccc(C=O)cc1", "values": [
      {"measurement": "logP", "value": 1.88}
    ]},
    {"compound": "COc1ccc(C=O)cc1OC", "values": [
      {"measurement": "solubility", "value": 38, "unit": "mM"}
    ]},
    {"compound": "O=Cc1ccc(O)c(O)c1", "values": [
      {"measurement": "logP", "value": 1.09}
    ]},
    {"compound": "O=Cc1cc(O)ccc1O", "values": [
      {"measurement": "logP", "value": 0.54},
      {"measurement": "solubility", "value": 99.9, "unit": "mM"}
    ]},
    {"compound": "O=Cc1ccc(O)c(Br)c1", "values": [
      {"measurement": "logP", "value": 1.83},
      {"measurement": "solubility", "value": 6.62, "unit": "mM"}
    ]},
    {"compound": "COc1ccc(OC)c(C=O)c1", "values": [
      {"measurement": "logP", "value": 1.91},
      {"measurement": "solubility", "value": 4.78, "unit": "mM"}
    ]},
    {"compound": "COc1cc(C=O)cc(OC)c1OC", "values": [
      {"measurement": "logP", "value": 1.39}
    ]}
  ]
}
